# Data taken from US11771645B2, “Transdermally absorbable base material containing lipid peptide compound” (KYUSHU UNIVERSITY, priority 2015, dated 2023).
# Tested on: Yucatan Micro Pig (YMP) skin
# Assay: Skin permeability test, fluorescently-labeled insulin in skin extract and receiver solution, vertical Franz type diffusion cell (Examples 8, 12, 14, 18)
# Assay type: in vitro ADME
# Experimental: Yucatan Micro Pig (YMP) skin (by Charles River Laboratories Japan, Inc.) stored at −80° C. was thawed at room temperature (roughly 25° C.), and was then subjected to the fat removal (to have a skin thickness of roughly 2 mm). Thus, the YMP skin of roughly 2 cm square was prepared.
# To a receiver phase of the vertical Franz type diffusion cell (effective area: 0.785 cm^2), 5.0 mL of phosphate buffered saline (PBS of pH 7.4, stirred at 500 rpm) was added, and the above-described YMP skin (temperature of PBS on skin surface: 32.5° C.) was set. […]
# The skin was taken out after 24 hours, and washed with the extractant [solution of PBS, acetonitrile, and methanol mixed at 2:1:1 (v/v/v)]. […] The extracted solution thus obtained was filtered using a PTFE filter (0.20 μm), and then, the quantity of the fluorescently-labeled insulin in the solution was determined using the fluorescence spectrometer LS-55 (manufactured by PerkinElmer, Inc.) (each calculated as the average value of three tests). The fluorescence spectrometer measurement was made at an excitation wavelength of 495 nm and a measurement wavelength of 521 nm. […]
# The skin was taken out after 24 hours, and washed with the extractant [solution of PBS, acetonitrile, and methanol mixed at 2:1:1 (v/v/v)]. […] The fluorescence spectrometer measurement was made at an excitation wavelength of 495 nm and a measurement wavelength of 521 nm. […]
substance,measurement,value
polyoxyethylene lauryl ether,transdermal absorption enhancing effect of insulin,no transdermal absorption enhancing effect
